{"source": "patent US12545637B2", "about": "“Extrahepatic targeted cationic lipid compound with high efficiency and low toxicity and its composition” (BEIJING YOUCARE KECHUANG PHARMACEUTICAL TECHNOLOGY CO., LTD., priority 2023, dated 2026)", "key": {"[1]": {"system": "293T cells", "experiment": "Cell transfection test of LNP formulation of eGFP-mRNA (optimization of preparation conditions)", "assay_type": "cell-based"}, "[2]": {"experiment": "Particle size and polydispersity index (PDI) of lipid nanoparticles by dynamic light scattering", "assay_type": "physicochemical", "description": "The particle size and polydispersity index (PDI) were determined by dynamic light scattering using Malvern laser particle size analyzer.\n10 μL of the liposome solution was weighed, diluted to 1 mL with RNase-free deionized water, and added to the sample pool. Each sample was measured in triplicate. The measurement conditions were: […] scattering angle, and 25° C."}, "[3]": {"system": "293T cells", "experiment": "Fluorescent detection of Fluc-mRNA (cell transfection efficiency of LNP formulations)", "assay_type": "cell-based"}, "[4]": {"system": "293T cells", "experiment": "Fluorescent detection of Fluc-mRNA (cell transfection efficiency of LNP formulations)", "assay_type": "cell-based", "remark": "listed apart in the source"}, "[5]": {"system": "female BALB/C mice", "experiment": "In vivo imaging in mice of Fluc-mRNA LNP formulations (mRNA expression and duration)", "how_it_was_run": "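Female BALB/C mice (4-6 weeks, 17-19 g) received LNP carrying […] Fluc-mRNA intramuscularly. At 6h, 24 h, 48h and 7d, fluorescent imaging substrate was given intraperitoneally and after 5 minutes average radiance, as a measure of expressed protein, was imaged on an IVIS Spectrum system.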"}}}
{"smiles": "CCCCCCCCC(CCCCCCCC)COC(=O)CCCCCN(CCCO)CCCN(CCCO)CCCCCC(=O)OCC(CCCCCCCC)CCCCCCCC", "note": "[YK-423, di(2-octyldecyl) 6,6′-(propan-1,3-diyl-bis((3-hydroxypropyl)azanediyl))dihexanoate]", "values": [{"measurement": "transfection efficiency at different molar ratios of polymer-conjugated lipid DMG-PEG2000 to carrier", "setting": "[1]; 0.5% to 15%", "value": "same results"}, {"measurement": "transfection effect at different molar ratios of cationic lipid, neutral lipid, structured lipid and polymer-conjugated lipid", "setting": "[1]; 75:5:15:5 to 25:5:65:5", "value": "same results"}, {"measurement": "PDI", "setting": "[2]; LNP formulation of the cationic lipid, 25° C.", "value": 11.7, "unit": "%"}, {"measurement": "Particle size", "setting": "[2]; LNP formulation of the cationic lipid/DSPC/cholesterol/DMG-PEG2000 49:10:39.5:1.5, 25° C.", "value": 175, "unit": "nm"}, {"measurement": "RLU value, times that of ALC-0315", "setting": "[3]; ratio vs ALC-0315", "value": 2.84}, {"measurement": "RLU value, times that of HHMA", "setting": "[3]; ratio vs HHMA", "value": 3.00}, {"measurement": "RLU value, times that of Lipofectamine 3000", "setting": "[3]; ratio vs Lipofectamine 3000", "value": 5.19}, {"measurement": "RLU value, times that of YK-009", "setting": "[3]; ratio vs YK-009", "value": 1.21}, {"measurement": "RLU value, times that of YK-405", "setting": "[3]; ratio vs YK-405", "value": 1.95}, {"measurement": "RLU value, times that of YK-406", "setting": "[3]; ratio vs YK-406", "value": 79.58}, {"measurement": "RLU value, times that of YK-408", "setting": "[3]; ratio vs YK-408", "value": 4.22}, {"measurement": "RLU value, times that of YK-409", "setting": "[3]; ratio vs YK-409", "value": 9.30}, {"measurement": "RLU value, times that of YK-410", "setting": "[3]; ratio vs YK-410", "value": 15.27}, {"measurement": "cell transfection efficiency, times that of YK-412", "setting": "[3]; ratio vs YK-412", "value": 1.85}, {"measurement": "cell transfection efficiency, times that of YK-413", "setting": "[3]; ratio vs YK-413", "value": 4.52}, {"measurement": "cell transfection efficiency, times that of YK-414", "setting": "[3]; ratio vs YK-414", "value": 14.02}, {"measurement": "cell transfection efficiency, times that of YK-416", "setting": "[3]; ratio vs YK-416", "value": 1.57}, {"measurement": "cell transfection efficiency, times that of YK-419", "setting": "[3]; ratio vs YK-419", "value": 1.97}, {"measurement": "cell transfection efficiency, times that of YK-420", "setting": "[3]; ratio vs YK-420", "value": 1.55}, {"measurement": "cell transfection efficiency, times that of YK-421", "setting": "[3]; ratio vs YK-421", "value": 13.35}, {"measurement": "Relative light unit (RLU)", "setting": "[4]; LNP with 0.3 μg Fluc-mRNA, 96-well plate, 24 hours", "value": 6227115, "unit": "RLU"}, {"measurement": "cell transfection efficiency, times that of YK-415", "setting": "[4]; ratio vs YK-415", "value": 20.89}, {"measurement": "cell transfection efficiency, times that of YK-417", "setting": "[4]; ratio vs YK-417", "value": 53.09}, {"measurement": "cell transfection efficiency, times that of YK-418", "setting": "[4]; ratio vs YK-418", "value": 55.97}, {"measurement": "cell transfection efficiency, times that of YK-424", "setting": "[4]; ratio vs YK-424", "value": 2.16}, {"measurement": "RLU value, times that of compound 21", "setting": "[4]; ratio vs compound 21", "value": 4.12}, {"measurement": "RLU value, times that of compound 23", "setting": "[4]; ratio vs compound 23", "value": 4.44}, {"measurement": "average radiation intensity, times that of ALC-0315", "setting": "[5]; 6 h", "value": 1.94}, {"measurement": "average radiation intensity, times that of HHMA", "setting": "[5]; 6 h", "value": 2.46}, {"measurement": "average radiation intensity, times that of SM-102", "setting": "[5]; 6 h", "value": 2.35}, {"measurement": "average radiation intensity, times that of compound 21", "setting": "[5]; 6 h", "value": 2.71}, {"measurement": "average radiation intensity, times that of compound 23", "setting": "[5]; 6 h", "value": 2.80}, {"measurement": "expression amount in mice, times that of YK-415", "setting": "[5]; 6 h", "value": 13.81}, {"measurement": "expression amount in mice, times that of YK-417", "setting": "[5]; 6 h", "value": 26.91}, {"measurement": "mRNA expression in mice, times that of YK-411", "setting": "[5]; 6 h", "value": 278.19}, {"measurement": "average radiation intensity, times that of ALC-0315", "setting": "[5]; 24 h", "value": 3.99}, {"measurement": "average radiation intensity, times that of HHMA", "setting": "[5]; 24 h", "value": 6.30}, {"measurement": "average radiation intensity, times that of SM-102", "setting": "[5]; 24 h", "value": 6.13}, {"measurement": "average radiation intensity, times that of compound 21", "setting": "[5]; 24 h", "value": 6.81}, {"measurement": "average radiation intensity, times that of compound 23", "setting": "[5]; 24 h", "value": 7.49}, {"measurement": "expression amount in mice, times that of YK-415", "setting": "[5]; 24 h", "value": 11.73}, {"measurement": "expression amount in mice, times that of YK-417", "setting": "[5]; 24 h", "value": 37.85}, {"measurement": "mRNA expression in mice, times that of YK-411", "setting": "[5]; 24 h", "value": 374.12}, {"measurement": "average radiation intensity, times that of ALC-0315", "setting": "[5]; 48 h", "value": 8.73}, {"measurement": "average radiation intensity, times that of HHMA", "setting": "[5]; 48 h", "value": 10.50}, {"measurement": "average radiation intensity, times that of SM-102", "setting": "[5]; 48 h", "value": 10.65}, {"measurement": "average radiation intensity, times that of compound 21", "setting": "[5]; 48 h", "value": 11.10}, {"measurement": "average radiation intensity, times that of compound 23", "setting": "[5]; 48 h", "value": 10.64}, {"measurement": "expression amount in mice, times that of YK-415", "setting": "[5]; 48 h", "value": 22.17}, {"measurement": "expression amount in mice, times that of YK-417", "setting": "[5]; 48 h", "value": 49.70}, {"measurement": "mRNA expression in mice, times that of YK-411", "setting": "[5]; 48 h", "value": 359.10}, {"measurement": "average radiation intensity, times that of ALC-0315", "setting": "[5]; 7 d", "value": 1.44}, {"measurement": "average radiation intensity, times that of HHMA", "setting": "[5]; 7 d", "value": 1.69}, {"measurement": "average radiation intensity, times that of SM-102", "setting": "[5]; 7 d", "value": 1.50}, {"measurement": "average radiation intensity, times that of compound 21", "setting": "[5]; 7 d", "value": 1.58}, {"measurement": "average radiation intensity, times that of compound 23", "setting": "[5]; 7 d", "value": 1.65}, {"measurement": "expression amount in mice, times that of YK-415", "setting": "[5]; 7 d", "value": 2.50}, {"measurement": "expression amount in mice, times that of YK-417", "setting": "[5]; 7 d", "value": 4.42}, {"measurement": "mRNA expression in mice, times that of YK-411", "setting": "[5]; 7 d", "value": 21.03}, {"measurement": "average radiation intensity, 6 h", "setting": "[5]; Fluc-mRNA LNP intramuscular, 6 h after administration", "value": 1627420}, {"measurement": "average radiation intensity, 24 h", "setting": "[5]; Fluc-mRNA LNP intramuscular, 24 h after administration", "value": 756472}, {"measurement": "average radiation intensity, 48 h", "setting": "[5]; Fluc-mRNA LNP intramuscular, 48 h after administration", "value": 350120}, {"measurement": "average radiation intensity, 7 d", "setting": "[5]; Fluc-mRNA LNP intramuscular, 7 d after administration", "value": 10093}]}
